Results on 9 molecules are retold here after patent US10077261B2, “Imidazolin-5-one derivative useful as FASN inhibitors for the treatment of cancer” (Janssen Pharmaceutica NV, priority 2012, dated 2018).

Each structure is given as a SMILES string.

The inhibition is the drop in the measured response relative to a control, in per cent.

In this experiment the target is T1, hFASN enzyme (full length) (Homo sapiens, UniProt P49327).
T1 construct: 10 μL hFASN enzyme (full length, 300 ng, purified in house); made in house
T1 sequence (P49327 whole entry): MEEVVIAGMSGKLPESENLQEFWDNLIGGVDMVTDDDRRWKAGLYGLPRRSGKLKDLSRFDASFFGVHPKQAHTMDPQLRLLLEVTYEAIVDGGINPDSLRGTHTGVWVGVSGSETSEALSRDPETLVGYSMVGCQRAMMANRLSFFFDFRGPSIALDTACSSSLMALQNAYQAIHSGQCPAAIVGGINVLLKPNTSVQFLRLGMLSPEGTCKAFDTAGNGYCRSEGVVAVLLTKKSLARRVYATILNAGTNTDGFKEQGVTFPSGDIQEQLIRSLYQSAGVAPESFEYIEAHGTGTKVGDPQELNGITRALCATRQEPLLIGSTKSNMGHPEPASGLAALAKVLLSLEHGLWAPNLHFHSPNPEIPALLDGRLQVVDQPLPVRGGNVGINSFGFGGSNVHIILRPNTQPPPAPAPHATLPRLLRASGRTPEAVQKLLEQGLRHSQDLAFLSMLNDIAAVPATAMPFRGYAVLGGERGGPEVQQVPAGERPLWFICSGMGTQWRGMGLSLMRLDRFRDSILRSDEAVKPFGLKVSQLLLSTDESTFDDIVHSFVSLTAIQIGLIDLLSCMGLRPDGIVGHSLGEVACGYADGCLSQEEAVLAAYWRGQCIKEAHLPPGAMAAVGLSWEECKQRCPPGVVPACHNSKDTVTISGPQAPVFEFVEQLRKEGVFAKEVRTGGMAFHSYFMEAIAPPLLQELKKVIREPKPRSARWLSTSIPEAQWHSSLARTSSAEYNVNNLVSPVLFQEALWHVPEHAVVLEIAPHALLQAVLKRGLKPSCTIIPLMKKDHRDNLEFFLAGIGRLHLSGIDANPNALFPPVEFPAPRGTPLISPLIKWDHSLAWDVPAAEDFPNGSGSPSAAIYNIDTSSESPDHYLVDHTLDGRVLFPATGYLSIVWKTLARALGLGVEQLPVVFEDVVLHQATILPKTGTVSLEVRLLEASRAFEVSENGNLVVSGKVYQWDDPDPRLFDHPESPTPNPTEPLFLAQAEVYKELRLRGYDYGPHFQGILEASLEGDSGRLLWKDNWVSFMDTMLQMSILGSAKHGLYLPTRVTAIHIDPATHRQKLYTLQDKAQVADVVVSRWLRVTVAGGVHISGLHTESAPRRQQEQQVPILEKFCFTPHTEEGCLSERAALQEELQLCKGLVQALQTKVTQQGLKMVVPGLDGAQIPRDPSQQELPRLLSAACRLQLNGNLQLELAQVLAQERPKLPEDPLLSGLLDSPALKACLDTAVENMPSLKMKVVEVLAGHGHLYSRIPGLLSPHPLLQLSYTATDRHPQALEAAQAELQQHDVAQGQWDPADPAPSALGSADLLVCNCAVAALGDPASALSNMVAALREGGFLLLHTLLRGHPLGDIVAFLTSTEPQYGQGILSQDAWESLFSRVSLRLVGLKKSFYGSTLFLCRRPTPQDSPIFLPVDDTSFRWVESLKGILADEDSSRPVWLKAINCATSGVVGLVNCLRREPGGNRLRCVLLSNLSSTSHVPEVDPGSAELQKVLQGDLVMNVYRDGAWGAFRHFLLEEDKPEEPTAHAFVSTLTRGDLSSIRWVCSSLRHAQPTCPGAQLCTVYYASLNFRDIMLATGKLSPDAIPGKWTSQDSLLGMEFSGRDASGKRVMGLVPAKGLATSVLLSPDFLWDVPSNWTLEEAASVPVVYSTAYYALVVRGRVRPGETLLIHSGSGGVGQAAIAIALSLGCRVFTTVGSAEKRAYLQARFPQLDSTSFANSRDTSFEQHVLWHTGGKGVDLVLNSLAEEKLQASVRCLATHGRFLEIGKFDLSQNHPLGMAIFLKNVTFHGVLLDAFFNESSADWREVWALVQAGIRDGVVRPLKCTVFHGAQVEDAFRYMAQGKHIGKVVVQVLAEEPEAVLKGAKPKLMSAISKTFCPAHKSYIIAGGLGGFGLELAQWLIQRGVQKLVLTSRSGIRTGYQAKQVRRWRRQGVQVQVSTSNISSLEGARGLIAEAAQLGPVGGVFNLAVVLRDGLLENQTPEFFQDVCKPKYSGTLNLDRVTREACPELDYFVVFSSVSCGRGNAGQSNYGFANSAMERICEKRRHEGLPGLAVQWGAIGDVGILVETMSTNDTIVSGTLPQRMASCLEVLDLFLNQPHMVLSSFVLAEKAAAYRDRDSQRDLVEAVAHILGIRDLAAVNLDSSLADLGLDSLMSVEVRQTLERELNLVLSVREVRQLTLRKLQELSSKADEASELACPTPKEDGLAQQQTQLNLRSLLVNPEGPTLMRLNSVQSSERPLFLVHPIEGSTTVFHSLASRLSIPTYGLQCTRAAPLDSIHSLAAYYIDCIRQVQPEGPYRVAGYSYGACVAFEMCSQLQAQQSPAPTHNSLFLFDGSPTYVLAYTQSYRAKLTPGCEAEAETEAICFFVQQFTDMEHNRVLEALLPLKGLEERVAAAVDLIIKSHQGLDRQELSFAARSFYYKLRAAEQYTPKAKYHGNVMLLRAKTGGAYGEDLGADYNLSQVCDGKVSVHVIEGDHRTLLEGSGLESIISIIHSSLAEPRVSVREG
As to the kind of experiment: Fatty Acid Synthase (FASN) inhibition scintillation proximity assay. Type of experiment: biochemical. As to conditions: for inhibition at 10 µM: read-out: Human FASN % inhibition @ 10 μM, 10 μM test compound; for IC50: read-out: Human FASN pIC50 (converted). The gist of the method:
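Full-length in-house purified enzyme (300 ng) was tested in 100 mM KH2PO4 pH 7.5, 1 mM DTT with ³H-acetyl-CoA and malonyl-CoA as substrates; compounds ranged 0.01–30 μM. Reactions were stopped with streptavidin imaging beads, read by LEADseeker at 610 nm, and fitted to a 4-parameter logistic curve.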
(In a scintillation proximity assay essentially only radioactivity close to the scintillant gives light.)

For the molecule `COC(=O)N1CC2(C1)N=C(c1ccc(-c3ccc4occc4c3)cc1)N(C[C@@H]1CCN(C(=O)C(F)(F)F)C1)C2=O` [compound 946, (R)-methyl 6-(4-(benzofuran-5-yl)phenyl)-8-oxo-7-((1-(2,2,2-trifluoroacetyl)pyrrolidin-3-yl)methyl)-2,5,7-triazaspiro[3.4]oct-5-ene-2-carboxylate], the inhibition at 10 µM came out at 37% and the IC50 was > 10 µM.

Take `O=C(c1nccs1)N1CC(CN2C(=O)C3(CCOCC3)N=C2c2ccc(-c3ccc4cccnc4c3)cc2)C1` [compound 947, 2-(4-(quinolin-7-yl)phenyl)-3-((1-(thiazole-2-carbonyl)azetidin-3-yl)methyl)-8-oxa-1,3-diazaspiro[4.5]dec-1-ene-4-one]: the inhibition at 10 µM was -14% and the IC50 is > 10 µM.

For the molecule `Cn1cc(-c2ccc(-c3ccc(C4=NC5(CCOCC5)C(=O)N4C[C@@H]4CCN(C(=O)c5nccs5)C4)cc3)cc2)cn1` [compound 948, (R)-2-(4′-(1-methyl-1H-pyrazol-4-yl)-[1,1′-biphenyl]-4-yl)-3-((1-(thiazole-2-carbonyl)pyrrolidin-3-yl)methyl)-8-oxa-1,3-diazaspiro[4.5]dec-1-en-4-one], the inhibition at 10 µM worked out at 25% and the IC50 was > 10 µM.

Regarding `O=C(c1nccs1)N1CC(CN2C(=O)C3(CCOCC3)N=C2c2ccc(-c3ccc4occc4c3)cc2)C1` [compound 949, 2-(4-(benzofuran-5-yl)phenyl)-3-((1-(thiazole-2-carbonyl)azetidin-3-yl)methyl)-8-oxa-1,3-diazaspiro[4.5]dec-1-en-4-one], the inhibition at 10 µM is -4% and the IC50 was > 10 µM.

Turning to `Cn1cc(-c2ccc(-c3ccc(C4=NC5(CCOC5)C(=O)N4CC4CN(S(C)(=O)=O)C4)cc3)cc2)cn1` (stereo not drawn) [compound 950, 2-(4′-(1-methyl-1H-pyrazol-4-yl)-[1,1′-biphenyl]-4-yl)-3-((1-(methylsulfonyl)azetidin-3-yl)methyl)-7-oxa-1,3-diazaspiro[4.4]non-1-en-4-one], the inhibition at 10 µM was -1.27% and the IC50 was > 10 µM.

`CC(C)N1CCC2(CC1)N=C(c1ccc(-c3ccc4cnccc4c3)cc1)N(CC1CN(C(=O)C3CC3)C1)C2=O` [compound 951, 3-((1-(cyclopropanecarbonyl)azetidin-3-yl)methyl)-8-isopropyl-2-(4-(isoquinolin-6-yl)phenyl)-1,3,8-triazaspiro[4.5]dec-1-en-4-one]: the inhibition at 10 µM came to 41% and the IC50 is > 10 µM.

In the case of `O=C(C1CC1)N1CC(CN2C(=O)C3(CCN(C(=O)C(F)(F)F)CC3)N=C2c2ccc(-c3ccc4c(ccn4C(=O)C(F)(F)F)c3)cc2)C1` [compound 952, 3-((1-(cyclopropanecarbonyl)azetidin-3-yl)methyl)-8-(2,2,2-trifluoroacetyl)-2-(4-(1-(2,2,2-trifluoroacetyl)-1H-indol-5-yl)phenyl)-1,3,8-triazaspiro[4.5]dec-1-en-4-one], the inhibition at 10 µM is 45% and the IC50 was > 10 µM.

For the molecule `COC(=O)N1CC[C@@H](CN2C(=O)C3(CCOCC3)N=C2c2ccc(-c3ccc4c(cnn4C)c3)cc2)C1` [compound 953, (S)-methyl 3-((2-(4-(1-methyl-1H-indazol-5-yl)phenyl)-4-oxo-8-oxa-1,3-diazaspiro[4.5]dec-1-en-3-yl)methyl)pyrrolidine-1-carboxylate], the inhibition at 10 µM was found to be 35% and the IC50 is > 10 µM.

Take `COC(=O)N1CC[C@@H](CN2C(=O)C3(CCOC3)N=C2c2ccc(-c3ccc4occc4c3)cc2)C1` (stereo partly drawn) [compound 954, (3S)-methyl 3-((2-(4-(benzofuran-5-yl)phenyl)-4-oxo-7-oxa-1,3-diazaspiro[4.4]non-1-en-3-yl)methyl)pyrrolidine-1-carboxylate]: the inhibition at 10 µM was 27% and the IC50 was > 10 µM.
